“And” between values parts separate entries of the source, which are not always exact repeats. Equal entries are not always repeated. Inconclusive results and toxic doses are left out.

The assay has as its system L1210 leukemia ip in BDF1 mice, survival T/C. As to the kind of experiment: NCI In Vivo Anticancer Drug Screen. Data for tumor model L1210 Leukemia (intraperitoneal) in B6D2F1 (BDF1) mice. The following applies: endpoint: mean survival time, higher = longer survival. In short, it runs like this: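 Value reflects the ratio of survival in compound-treated mice to survival in vehicle-treated controls, with both groups carrying the same transplanted tumor.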

Where [1] appears, read: dose: 100.0 mg/kg/injection, schedule: Q04DX002 (ip), vehicle: saline with Tween-80.
Setting [2] is: dose: 200.0 mg/kg/injection, schedule: Q04DX002 (ip), vehicle: saline with Tween-80.
[3] abbreviates: dose: 400.0 mg/kg/injection, schedule: Q04DX002 (ip), vehicle: saline with Tween-80.
Where [4] appears, read: dose: 100.0 mg/kg/injection, schedule: Q01DX001 (ip), vehicle: saline.
The mark [5] stands for this setting: dose: 100.0 mg/kg/injection, schedule: Q01DX001 (ip), vehicle: other.
[6] abbreviates: dose: 200.0 mg/kg/injection, schedule: Q01DX001 (ip), vehicle: other.
[7] abbreviates: dose: 400.0 mg/kg/injection, schedule: Q01DX001 (ip), vehicle: other.
The mark [8] stands for this setting: dose: 100.0 mg/kg/injection, schedule: Q04DX003 (ip), vehicle: Klucel (hydroxypropylcellulose) (HPC).
The mark [9] stands for this setting: dose: 200.0 mg/kg/injection, schedule: Q04DX003 (ip), vehicle: Klucel (hydroxypropylcellulose) (HPC).
Setting [10] is: dose: 400.0 mg/kg/injection, schedule: Q04DX003 (ip), vehicle: Klucel (hydroxypropylcellulose) (HPC).
The mark [11] stands for this setting: dose: 12.5 mg/kg/injection, schedule: Q01DX009 (ip), vehicle: Klucel (hydroxypropylcellulose) (HPC).
Setting [12] is: dose: 12.5 mg/kg/injection, schedule: Q04DX003 (ip), vehicle: Klucel (hydroxypropylcellulose) (HPC).
Where [13] appears, read: dose: 25.0 mg/kg/injection, schedule: Q01DX009 (ip), vehicle: Klucel (hydroxypropylcellulose) (HPC).
[14] abbreviates: dose: 25.0 mg/kg/injection, schedule: Q04DX003 (ip), vehicle: Klucel (hydroxypropylcellulose) (HPC).
[15] abbreviates: dose: 50.0 mg/kg/injection, schedule: Q01DX001 (ip), vehicle: saline.
Where [16] appears, read: dose: 200.0 mg/kg/injection, schedule: Q01DX001 (ip), vehicle: saline.
[17] abbreviates: dose: 400.0 mg/kg/injection, schedule: Q01DX001 (ip), vehicle: saline.
[18] abbreviates: dose: 100.0 mg/kg/injection, schedule: Q04DX003 (ip), vehicle: saline.

As for `CCCCCCCCC1OC1CCCCCCCC(N)=O` (stereo unspecified), the T/C runs as follows: under setting [1], 92 % of control; under setting [2], 88 % of control; under setting [3], 100 % of control.
As for `CCC1(c2ccccc2)C(=O)N(C)C(=O)N(CBr)C1=O` (stereo unspecified), the T/C was 109 % of control (dose: 100.0 mg/kg/injection, schedule: Q01DX009 (ip), vehicle: saline with Tween-80); 92 % of control under setting [1]; 106 % of control (dose: 200.0 mg/kg/injection, schedule: Q01DX009 (ip), vehicle: saline with Tween-80); 98 % of control under setting [2]; 103 % of control under setting [3].
In the case of `COc1c(O)ccc2c1-c1c3c(cc4c1C(C2)NCC4)OCO3` (stereo unspecified), the T/C under setting [4] is 102 % of control.
For the molecule `CN(C)C(=O)Oc1c(Cl)c(Cl)c(OC(=O)N(C)C)c(Cl)c1Cl`, the T/C (dose: 100.0 mg/kg/injection, schedule: Q04DX002 (ip), vehicle: Klucel (hydroxypropylcellulose) (HPC)) was 94 % of control; the T/C (dose: 200.0 mg/kg/injection, schedule: Q04DX002 (ip), vehicle: Klucel (hydroxypropylcellulose) (HPC)) is 105 % of control; the T/C (dose: 400.0 mg/kg/injection, schedule: Q04DX002 (ip), vehicle: Klucel (hydroxypropylcellulose) (HPC)) was 90 % of control.
Regarding `CCCCC#CC(O)(C(=O)OC)c1ccccc1` (stereo unspecified), the T/C is, setting by setting: under setting [5], 107 % of control; under setting [6], 110 % of control; under setting [7], 94 % of control.
For `CC1CCC(C(O)(C(=O)O)C2CCCCC2)CC1C` (stereo unspecified), the T/C reads like this: (dose: 75.0 mg/kg/injection, schedule: Q01DX001 (ip), vehicle: carboxymethylcellulose (CMC)) 97 % of control; (dose: 150.0 mg/kg/injection, schedule: Q01DX001 (ip), vehicle: carboxymethylcellulose (CMC)) 105 % of control; (dose: 300.0 mg/kg/injection, schedule: Q01DX001 (ip), vehicle: carboxymethylcellulose (CMC)) 100 % of control.
As for `O=c1[nH]cnc2n[nH]nc12`, the T/C is 113 % of control (dose: 176.0 mg/kg/injection, schedule: Q01DX009 (ip), vehicle: other); 117 % of control (dose: 264.0 mg/kg/injection, schedule: Q01DX009 (ip), vehicle: other); 124 % of control (dose: 400.0 mg/kg/injection, schedule: Q01DX009 (ip), vehicle: other).
`Nc1nc2nc(N=Nc3ccc(S(=O)(=O)N(CCCl)CCCl)cc3)[nH]c2c(=O)[nH]1`: the T/C was 93 % of control under setting [8], 87 % of control under setting [9] and 96 % of control under setting [10].
Turning to `O=c1ccccn1C/C(=N\O)c1ccccc1`, the T/C was 98 % of control (dose: 100.0 mg/kg/injection, schedule: Q01DX009 (ip), vehicle: Klucel (hydroxypropylcellulose) (HPC)); 107 % of control under setting [8]; 100 % of control (dose: 200.0 mg/kg/injection, schedule: Q01DX009 (ip), vehicle: Klucel (hydroxypropylcellulose) (HPC)); 98 % of control under setting [9]; 107 % of control (dose: 400.0 mg/kg/injection, schedule: Q01DX009 (ip), vehicle: Klucel (hydroxypropylcellulose) (HPC)); 100 % of control under setting [10].
For `CC[C@@]1(O)C(=O)OCc2c1cc1n(c2=O)Cc2cc3c(OC)cccc3nc2-1`, the T/C (dose: 0.25 mg/kg/injection, schedule: Q01DX009 (ip), vehicle: saline with Tween-80) is 122 % of control; the T/C (dose: 0.5 mg/kg/injection, schedule: Q01DX009 (ip), vehicle: carboxymethylcellulose (CMC)) is 120 % of control; the T/C (dose: 0.5 mg/kg/injection, schedule: Q01DX009 (ip), vehicle: saline with Tween-80) was 122 % of control; the T/C (dose: 1.0 mg/kg/injection, schedule: Q01DX009 (ip), vehicle: carboxymethylcellulose (CMC)) is 107 % of control; the T/C (dose: 1.0 mg/kg/injection, schedule: Q01DX009 (ip), vehicle: saline with Tween-80) is 162 % of control; the T/C (dose: 4.0 mg/kg/injection, schedule: Q01DX009 (ip), vehicle: carboxymethylcellulose (CMC)) was 88 % of control. Further, the T/C is 173 % of control (dose: 4.0 mg/kg/injection, schedule: Q04DX003 (ip), vehicle: saline with Tween-80); 215 % of control (dose: 8.0 mg/kg/injection, schedule: Q04DX003 (ip), vehicle: saline with Tween-80); 123 % of control (dose: 12.5 mg/kg/injection, schedule: Q04DX003 (ip), vehicle: saline with Tween-80); 96 % of control (dose: 25.0 mg/kg/injection, schedule: Q04DX003 (ip), vehicle: saline with Tween-80); 93 % of control (dose: 50.0 mg/kg/injection, schedule: Q04DX003 (ip), vehicle: saline with Tween-80).
In the case of `N=C(N=Nc1c(O)[nH]c2ccccc12)N[N+](=O)[O-]`, the T/C (dose: 6.25 mg/kg/injection, schedule: Q01DX009 (ip), vehicle: Klucel (hydroxypropylcellulose) (HPC)) is 95 % of control; the T/C under setting [11] is 101 % of control; the T/C under setting [12] is 100 % of control; the T/C under setting [13] is 91 % of control; the T/C under setting [14] is 102 % of control.
Take `O=c1[nH]cnc2c1ncn2C1OCC(O)C(O)C1O` (stereo unspecified): the T/C under setting [15] was 105 % of control; the T/C under setting [4] was 101 % of control and 105 % of control; the T/C under setting [16] is 119 % of control and 109 % of control; the T/C under setting [17] is 103 % of control.
Regarding `N#CC(=N)N1CCCCC1`, the T/C was 98 % of control under setting [18]; 112 % of control (dose: 200.0 mg/kg/injection, schedule: Q04DX003 (ip), vehicle: saline); 109 % of control (dose: 400.0 mg/kg/injection, schedule: Q04DX003 (ip), vehicle: saline).
As to `Nc1ncc(CO)c(N)n1`, the T/C (dose: 25.0 mg/kg/injection, schedule: Q01DX001 (ip), vehicle: Klucel (hydroxypropylcellulose) (HPC)) is 100 % of control; the T/C (dose: 50.0 mg/kg/injection, schedule: Q01DX001 (ip), vehicle: Klucel (hydroxypropylcellulose) (HPC)) is 98 % of control; the T/C (dose: 100.0 mg/kg/injection, schedule: Q01DX001 (ip), vehicle: Klucel (hydroxypropylcellulose) (HPC)) was 98 % of control and 100 % of control.
As for `O=C(O)c1ccccc1C(=O)c1cccc2ccccc12`, the T/C reads like this: (dose: 100.0 mg/kg/injection, schedule: Q04DX002 (ip), vehicle: gum acacia) 102 % of control; (dose: 200.0 mg/kg/injection, schedule: Q04DX002 (ip), vehicle: gum acacia) 104 % of control; (dose: 400.0 mg/kg/injection, schedule: Q04DX002 (ip), vehicle: gum acacia) 95 % of control.
Turning to `[N-]=C=C(C(=O)c1ccccc1)[n+]1cc(Br)cc2ccccc21`, the T/C was 94 % of control under setting [1], 94 % of control under setting [2] and 94 % of control under setting [3].
As to `COc1ccc(C(N)=O)c(C)c1OC`, the T/C is 98 % of control under setting [15], 95 % of control under setting [4], 95 % of control under setting [16] and 95 % of control under setting [17].
`CN1CCC=C(CN2c3ccccc3Sc3ccccc32)C1`: the T/C reads like this: (dose: 25.0 mg/kg/injection, schedule: Q01DX009 (ip), vehicle: saline) 109 % of control; (dose: 25.0 mg/kg/injection, schedule: Q04DX003 (ip), vehicle: saline) 101 % of control; (dose: 50.0 mg/kg/injection, schedule: Q01DX009 (ip), vehicle: saline) 119 % of control; (dose: 50.0 mg/kg/injection, schedule: Q04DX003 (ip), vehicle: saline) 105 % of control; (dose: 100.0 mg/kg/injection, schedule: Q01DX009 (ip), vehicle: saline) 124 % of control; under setting [18], 103 % of control and 105 % of control.
`O=C(NC(=O)C(C(=O)c1ccccc1)c1ccccc1)c1ccccc1` (stereo unspecified): the T/C is, setting by setting: under setting [5], 86 % of control; under setting [6], 89 % of control; under setting [7], 91 % of control.
For `O=C1C(=Cc2ccc([N+](=O)[O-])cc2)C(=O)c2ccccc21`, the T/C is 93 % of control under setting [11]; 97 % of control under setting [12]; 88 % of control under setting [13]; 90 % of control under setting [14]; 98 % of control (dose: 50.0 mg/kg/injection, schedule: Q01DX009 (ip), vehicle: Klucel (hydroxypropylcellulose) (HPC)); 93 % of control (dose: 50.0 mg/kg/injection, schedule: Q04DX003 (ip), vehicle: Klucel (hydroxypropylcellulose) (HPC)).

The record behind these values is PubChem BioAssay AID248 (DTP/NCI, 2004).
